# Assay results: PubChem BioAssay AID624373 (Broad Institute, 2012)
# Results filed as inconclusive are left out. Calls of active or inactive are those of the source.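 Rule for the calls: active = fitted curve reaches -35% activity change at up to twice the top valid dose, with every replicate test run active; inconclusive = replicate test runs disagree on the call; inactive = all runs inactive, no -35% crossing or signal rises.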
# Test system: HEK293 LMP1-TES2 NF-kB luciferase reporter, 16 h
# Assay: inhibition of EBV LMP1-induced NF-kB luciferase – cell-based, HEK293, dry powder, dose response (AID 624373)
# Conditions: not given
row,Compound,AC35 [nM]
1,CC(C)=CCN(C(=O)C#Cc1ccccc1)[C@H](CO)c1ccccc1,1880
2,CC1CN(C(=O)CSc2nnc3c4ccccc4n(Cc4cccc(Cl)c4)c3n2)CCN1C(=O)c1ccccc1F (centres undefined),4360
3,C/C(=N\NC(=S)N1CC2CCC(CC2)C1)c1ccncn1,2500
4,C[C@H](CO)N1C[C@H](C)[C@@H](CN(C)CC2CC2)OCCCC[C@H](C)Oc2ccc(NC(=O)Nc3cccc4ccccc34)cc2C1=O,351
5,Cc1ccnc(NC(=O)c2ccc(C(=O)c3ccccc3)cc2)c1,11000
6,C/C(=N\NC(=S)Nc1ccc(C)cc1)c1ccccn1,142
7,C[C@H]1CCCCO[C@@H](CN(C)CC2CCCCC2)[C@@H](C)CN([C@@H](C)CO)C(=O)c2cc(NC(=O)C3CCCCC3)ccc2O1,9980
8,C=C1C[C@]23C[C@@]1(O)CC[C@@H]2c1cccc(C)c1[C@@H]3C(=O)O,4340
9,C/C(=N\NC(=S)N1CCC1)c1ccccn1,679
10,C[C@H](CO)N1C[C@H](C)[C@@H](CN(C)Cc2ccc(-c3ccccc3)cc2)Oc2ccc(NC(=O)Nc3cccc4ccccc34)cc2CC1=O,2360
11,CC12CCC3C(CC=C4CC(O)CCC43CO)C1CCC2OC(=O)c1ccccc1 (centres undefined),3060
12,O=C(CSc1nnc2c3ccccc3n(Cc3ccccc3)c2n1)NCc1ccco1,2100
13,C/C(=N\NC(=S)N1CCCCC1)c1cccc(C)n1,259
14,C[C@@H]1CN([C@@H](C)CO)C(=O)c2cc(NC(=O)Nc3ccc4c(c3)OCO4)ccc2O[C@H]1CN(C)CC1CCCCC1,895
15,COc1ccc2[nH]c(C(=O)N/N=C/c3ccc(O)cc3O)cc2c1,3630
16,c1ccc(Cn2c3ccccc3c3nnc(SCCN4CCCCC4)nc32)cc1,18700
17,O=C1/C(=C/c2ccncc2)SC(=S)N1Cc1ccccc1,18200
18,C/C(=N\NC(=S)Nc1ccccc1Cl)c1ccccn1,457
19,COc1ccc(NC(=O)c2ccc(OC(C)C(=O)O)cc2)cc1Cl (centres undefined),11800
20,C/C(=N\NC(=S)N1CC2CCC(CC2)C1)c1ccccn1,1180
21,C[C@H](CO)N1C[C@H](C)[C@H](CN(C)C(=O)Nc2ccc(C(F)(F)F)cc2)OCCCC[C@H](C)Oc2ccc(NC(=O)Nc3ccc(F)cc3)cc2C1=O,5400

row,Compound,AC35 [nM]
1,C/C=C/C/C=C/CCC(=O)[C@H]1O[C@H]1C(N)=O,12000
2,CCN1CCN(C(c2cccnc2)c2cc(Cl)c3cccnc3c2O)CC1 (centres undefined),3320
3,Cc1ccc(NC(=O)C2CCN(S(=O)(=O)c3ccc4c(c3)NC(=O)C(C)S4)CC2)cc1Cl (centres undefined),1650
4,C/C(=N\NC(=S)Nc1ccccc1)c1ccccn1,313
5,COc1ccccc1[C@]1(C)ON(c2ccccc2C(F)(F)F)C1=O,8160
6,COCCCNC(=O)C(C)Sc1nnc2c3cc(C)ccc3n(Cc3ccccc3F)c2n1 (centres undefined),5010
7,C/C(=N\NC(=S)Nc1cccc(Cl)c1)c1ccccn1,314
8,CCC(Sc1nnc2c3ccccc3n(Cc3ccc(Br)cc3)c2n1)C(=O)NCCCN1CCOCC1 (centres undefined),3200
9,O=c1[nH]c(=O)n([C@H]2C[C@H](O)[C@@H](CO)O2)cc1C(F)(F)F,3090
10,CCCSc1nnc2c3ccccc3n(Cc3ccccc3)c2n1,3400
11,S=C(NCc1ccccn1)N/N=C/c1ccccn1,1010
12,C[C@@H]1CCCCO[C@H](CN(C)C(=O)NC2CCCCC2)[C@H](C)CN([C@@H](C)CO)C(=O)c2cc(NC(=O)C3CCCCC3)ccc2O1,6420
13,Fc1ccc2c(c1)c1nnc(SCCN3CCOCC3)nc1n2Cc1ccccc1,3940
14,C[C@@H]1CN([C@@H](C)CO)C(=O)c2cc(NC(=O)Nc3ccc(C(F)(F)F)cc3)ccc2O[C@@H](C)CCCCO[C@@H]1CN(C)CC1CCCCC1,1860
15,C/C(=N\NC(=S)N1CCCCC1)c1ccccn1,212
16,CSC(=S)N/N=C(\C)c1cccc(C)n1,3010
17,C/C(=N\NC(=S)N1CCCCCC1)c1ccccn1,216
18,C/C(=N\NC(=S)N1CC2CCC(CC2)C1)c1cccc(C)n1,637
19,Cc1ccc(S(=O)(=O)Nc2ccc3c(c2)C(=O)N([C@@H](C)CO)C[C@H](C)[C@@H](CN(C)C(=O)CCC(F)(F)F)OCCCC[C@H](C)O3)cc1,288
20,C/C(=N\NC(=S)N1CCCC1)c1ccccn1,262
21,Nc1ccn([C@@H]2O[C@H](CO)[C@@H](O)C2O)c(=O)n1 (some centres undefined),8540

# Test system: not listed separately
# Assay: as above
# Conditions: HEK293 LMP1-TES2 NF-kB luciferase reporter, 16 h; at 15 µM (top of the series)
row,Compound,"activity change, negative = inhibition"
1,C=C1C[C@]23C[C@@]1(O)CC[C@H]2[C@@]12C=C[C@H](O)[C@@](C)(C(=O)O1)[C@H]2[C@@H]3C(=O)O,2.14% (inactive)

# Same assay, conditions: HEK293 LMP1-TES2 NF-kB luciferase reporter, 16 h; at 26 µM (top of the series)
row,Compound,"activity change, negative = inhibition"
1,C[C@@H]1CCCCO[C@@H](CN(C)Cc2ccccc2)[C@H](C)CN([C@H](C)CO)C(=O)c2cc(NC(=O)Nc3ccc4c(c3)OCO4)ccc2O1,10.6% (inactive)
2,C[C@@H]1CN([C@@H](C)CO)C(=O)c2cc(NC(=O)Nc3ccc(C(F)(F)F)cc3)ccc2O[C@@H](C)CCCCO[C@H]1CN(C)Cc1ccc(C(F)(F)F)cc1,52.3% (inactive)
3,CNC[C@@H]1Oc2ccc(NS(=O)(=O)c3cn(C)cn3)cc2CC(=O)N([C@H](C)CO)C[C@@H]1C,37.6% (inactive)
4,COc1ccc(-c2csc3ncnc(NCCN4CCOCC4)c23)cc1,30.3% (inactive)
5,c1ccc(-c2cn3c4c(sc3n2)CCCC4)cc1,7.22% (inactive)
6,C[C@H](CO)N1C[C@H](C)[C@@H](CN(C)CC2CCCCC2)OCCCC[C@H](C)Oc2ccc(NC(=O)Nc3cccc4ccccc34)cc2C1=O,27.7% (inactive)
7,O=C(Nc1cc(C(F)(F)F)cc(C(F)(F)F)c1)Nc1cnn(-c2ccc([N+](=O)[O-])cc2)c1C(F)(F)F,10.5% (inactive)
8,C[C@@H]1CCCCO[C@H](CN(C)CC2CCCCC2)[C@H](C)CN([C@@H](C)CO)C(=O)c2cc(NC(=O)NC3CCCCC3)ccc2O1,56.5% (inactive)
9,Cc1c(NC(=O)c2cccc(NC(=O)COc3ccccc3C#N)c2)c(=O)n(-c2ccccc2)n1C,23.3% (inactive)
10,CCc1ccc(/C=C2\SC(=S)N(CCCC(=O)Nc3ccccn3)C2=O)cc1,12.1% (inactive)
11,Oc1cccc(C(Nc2nccs2)c2ccc3cccnc3c2O)c1 (centres undefined),33.9% (inactive)
12,C[C@@H]1CCCCO[C@H](CN(C)C(=O)c2ccccc2)[C@H](C)CN([C@@H](C)CO)C(=O)c2cc(NC(=O)Nc3ccc(F)cc3)ccc2O1,4.26% (inactive)
13,Cc1cc(NC(=O)c2ccc3c(c2)OCCO3)no1,1.38% (inactive)
14,COc1ccc(-c2cc3nc4n(c(=O)c3s2)CCC4)cc1,23.4% (inactive)
15,Cc1ccc(S(=O)(=O)NC(CC(C)C)C(=O)NCC(c2ccco2)N2CCCCC2)cc1 (centres undefined),-8.46% (inactive)
16,CCc1sc(C(=O)Nc2ncccc2O)cc1C,-12.6% (inactive)
